Data published in patent publication US20210214375A1 (LUNDBECK LA JOLLA RESEARCH CENTER, INC., priority 2017, published 2021).
Like-named read-outs stand apart in the source and are kept apart here.

Legend:
MAGL [1] = molecular target: T1, MAGL (Homo sapiens, UniProt Q99685); assay: In vitro competitive activity-based protein profiling (gel-based, FP-Rh or HT-01 probe); format: biochemical
T1 construct: Proteomes (human prefrontal cortex or cell membrane fractions); from tissue
T1 sequence (Q99685 1-303): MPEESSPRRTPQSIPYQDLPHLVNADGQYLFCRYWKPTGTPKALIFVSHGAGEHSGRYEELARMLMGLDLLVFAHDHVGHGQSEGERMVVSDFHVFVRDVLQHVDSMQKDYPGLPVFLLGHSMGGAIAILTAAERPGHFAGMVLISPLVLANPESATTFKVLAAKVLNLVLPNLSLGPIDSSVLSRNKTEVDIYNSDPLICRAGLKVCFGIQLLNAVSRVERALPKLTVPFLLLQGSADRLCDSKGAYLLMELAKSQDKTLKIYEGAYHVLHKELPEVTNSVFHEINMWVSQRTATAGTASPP
In short: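 Readout is SDS-PAGE of probe-labelled proteome after FP-Rh or HT-01 (1.0 μL, 50 μM stock) labelling for 30 min at room temperature. Beforehand, inhibitors at varying concentrations were preincubated 30 min at 37° C with human prefrontal cortex or cell membrane fractions at 1.0 mg/mL total protein.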

MAGL [2] = molecular target: T2, MAGL (Mus musculus, UniProt O35678); assay: Mouse brain proteomes from inhibitor treated mice (oral gavage, brain proteomes analyzed 4 h after administration); format: in vivo, mouse (C57Bl/6J); settings: brain proteome 4 h after administration, read-out: % Inh 5 mg/kg MGLL (Mouse)
T2 construct: from tissue; host or cells: brain of wild-type C57Bl/6J mice
T2 sequence (O35678 1-303): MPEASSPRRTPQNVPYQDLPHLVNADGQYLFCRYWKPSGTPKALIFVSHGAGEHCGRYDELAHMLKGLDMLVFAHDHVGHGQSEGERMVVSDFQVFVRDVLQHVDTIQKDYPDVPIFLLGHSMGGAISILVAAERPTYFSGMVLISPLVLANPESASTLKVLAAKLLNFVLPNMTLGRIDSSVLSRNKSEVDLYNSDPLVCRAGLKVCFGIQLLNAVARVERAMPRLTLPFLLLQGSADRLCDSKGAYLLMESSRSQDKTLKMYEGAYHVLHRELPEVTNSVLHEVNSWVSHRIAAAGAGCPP
Protocol: Compounds are tested to assess their MAGL and serine hydrolase activity using the following in vitro and in vivo assays.
Preparation of Mouse Brain Proteomes from Inhibitor Treated Mice.
Inhibitors were administered to wild-type C57Bl/6J by oral gavage in a vehicle of polyethylene glycol. Each animal was sacrificed 4 h following administration and brain proteomes were prepared and analyzed according to previously established methods (See Niphakis, M. J., et al. (2011) ACS Chem. Neurosci. and Long, J. Z., et al. Nat. Chem. Biol. 5:37-44).

[3] = PC3 proteome, read-out: IC50 MGLL PC3 (Human)
[4] = PFC (prefrontal cortex) proteome

Row | Compound | IC50 (MAGL [1]; [3]) [µM] | % Inh MGLL PFC (Human, μM) (MAGL [1]; [4]) | inhibition at 5 mg/kg (MAGL [2]) [%] | IC50 (MAGL [1]; PFC (prefrontal cortex) proteome, read-out: IC50 MGLL PFC (Human)) [µM]
1 | CC(C)(C#Cc1c(F)cccc1CN1CCCC12CCN(C(=O)OC(C(F)(F)F)C(F)(F)F)CC2)C(=O)O [Example 147, 4-{2-Fluoro-6-[(8-{[(1,1,1,3,3,3-hexafluoropropan-2-yl)oxy]carbonyl}-1,8-diazaspiro[4.5]decan-1-yl)methyl]phenyl]-2,2-dimethylbut-3-ynoic acid] | < 0.1 | ### (### is ≥ 75%) | ≥ 75 | –
2 | CC1(C(=O)O)CCCN(c2cc(C(F)(F)F)ccc2CN2CC3(CCN(C(=O)OC(C(F)(F)F)C(F)(F)F)CC3)C2)C1 (centres unmarked) [Example 112, 1-(2-((7-(((1,1,1,3,3,3-Hexafluoropropan-2-yl)oxy)carbonyl)-2,7-diazaspiro[3.5]nonan-2-yl)methyl)-5-(trifluoromethyl)phenyl)-3-methylpiperidine-3-carboxylic acid] | < 0.1 | – | ≤ 25 | –
3 | CN(Cc1ccc(C(F)(F)F)cc1N1CCC(C(=O)O)CC1)C1(C)CCN(C(=O)OC(C(F)(F)F)C(F)(F)F)CC1 [Example 14, 1-(2-(((1-(((1,1,1,3,3,3-Hexafluoropropan-2-yl)oxy)carbonyl)-4-methylpiperidin-4-yl)(methyl)amino)methyl)-5-(trifluoromethyl)phenyl)piperidine-4-carboxylic acid] | < 0.1 | – | ≥ 75 | –
4 | CN(Cc1ccc(C(F)(F)F)cc1CN1CCC(C(=O)O)CC1)C1(C)CCN(C(=O)OC(C(F)(F)F)C(F)(F)F)CC1 [Example 137, 1-(2-(((1-(((1,1,1,3,3,3-Hexafluoropropan-2-yl)oxy)carbonyl)-4-methylpiperidin-4-yl)(methyl)amino)methyl)-5-(trifluoromethyl)benzyl)piperidine-4-carboxylic acid] | < 0.1 | ### (### is ≥ 75%) | ≥ 75 | –
5 | O=C(O)CN1CC2CC1CN2c1cc(CN2CCC3(CCN(C(=O)OC(C(F)(F)F)C(F)(F)F)CC3)C2)cc(C(F)(F)F)c1 (centres unmarked) [Example 125, 2-(5-{3-[(8-{[(1,1,1,3,3,3-Hexafluoropropan-2-yl)oxy]carbonyl}-2,8-diazaspiro[4.5]decan-2-yl)methyl]-5-(trifluoromethyl)phenyl}-2,5-diazabicyclo[2.2.1]heptan-2-yl)acetic acid] | < 0.1 | – | ≤ 25 | –
6 | CC1(C(=O)O)CN(c2cc(C(F)(F)F)ccc2CN2CC3(CCN(C(=O)OC(C(F)(F)F)C(F)(F)F)CC3)C2)CCO1 (centres unmarked) [Example 130, 4-(2-((7-(((1,1,1,3,3,3-Hexafluoropropan-2-yl)oxy)carbonyl)-2,7-diazaspiro[3.5]nonan-2-yl)methyl)-5-(trifluoromethyl)phenyl)-2-methylmoipholine-2-carboxylic acid] | < 0.1 | – | ≤ 25 | –
7 | O=C(O)CN1CCC2(CCN(c3cc(C(F)(F)F)ccc3CN3CCCC34CCN(C(=O)OC(C(F)(F)F)C(F)(F)F)CC4)CC2)C1 [Example 153, 2-(8-(2-((8-(((1,1,1,3,3,3-Hexafluoropropan-2-yl)oxy)carbonyl)-1,8-diazaspiro[4.5]decan-1-yl)methyl)-5-(trifluoromethyl)phenyl)-2,8-diazaspiro[4.5]decan-2-yl)acetic acid] | < 0.1 | – | ≤ 25 | –
8 | CN(Cc1ccc(Cl)cc1C1(C(=O)O)CCCC1)C1(C)CCN(C(=O)OC(C(F)(F)F)C(F)(F)F)CC1 [Example 142, 1-(5-Chloro-2-{[(1-{[(1,1,1,3,3,3-hexafluoropropan-2-yl)oxy]carbonyl}-4-methylpiperidin-4-yl)(methyl)amino]methyl}phenyl) cyclopentane-1-carboxylic acid] | < 0.1 | ### (### is ≥ 75%) | ≥ 75 | –
9 | O=C(OC(C(F)(F)F)C(F)(F)F)N1CCC2(CCCN2Cc2cc(Cl)cc(C3(C(=O)O)CCCC3)c2)CC1 [Example 134, 1-{3-Chloro-5-[(8-{[(1,1,1,3,3,3-hexafluoropropan-2-yl)oxy]carbonyl}-1,8-diazaspiro[4.5]decan-1-yl)methyl]phenyl} cyclopentane-1-carboxylic acid] | < 0.1 | ### (### is ≥ 75%) | ≥ 75 | –
10 | O=C(O)CN1CCC2(CC1)CN(c1cc(C(F)(F)F)ccc1CN1CCCC13CCN(C(=O)OC(C(F)(F)F)C(F)(F)F)CC3)C2 [Example 156, 2-(2-(2-((8-(((1,1,1,3,3,3-Hexafluoropropan-2-yl)oxy)carbonyl)-1,8-diazaspiro[4.5]decan-1-yl)methyl)-5-(trifluoromethyl)phenyl)-2,7-diazaspiro[3.5]nonan-7-yl)acetic acid] | < 0.1 | – | ≤ 25 | –

The next lines start with the values.

Row | IC50 (MAGL [1]; [3]) [µM] | % Inh MGLL PFC (Human, μM) (MAGL [1]; [4]) | inhibition at 5 mg/kg (MAGL [2]) [%] | IC50 (MAGL [1]; PFC (prefrontal cortex) proteome, read-out: IC50 MGLL PFC (Human)) [µM] | Compound
11 | < 0.1 | ### (### is ≥ 75%) | ≥ 75 | – | CN(Cc1ccc(C(F)(F)F)cc1C1(C(=O)O)CCCC1)C1(C)CCN(C(=O)OC(C(F)(F)F)C(F)(F)F)CC1 [Example 133, 1-(2-{[(1-{[(1,1,1,3,3,3-Hexafluoropropan-2-yl)oxy]carbonyl}-4-methylpiperidin-4-yl)(methyl)amino]methyl}-5-(trifluoromethyl)phenyl)cyclopentane-1-carboxylic acid]
12 | < 0.1 | – | ≥ 75 | – | O=C(O)C1CCN(c2c(Cl)cccc2CN2CCC3(CC2)CCN(C(=O)OC(C(F)(F)F)C(F)(F)F)C3)CC1 [Example 218, 1-(2-Chloro-6-((2-(((1,1,1,3,3,3-hexafluoropropan-2-yl)oxy)carbonyl)-2,8-diazaspiro[4.5]decan-8-yl)methyl)phenyl) piperidine-4-carboxylic acid]
13 | < 0.1 | ### (### is ≥ 75%) | ≥ 75 | – | O=C(OC(C(F)(F)F)C(F)(F)F)N1CCC2(CCCN2Cc2cc(F)cc(C3(C(=O)O)CCCC3)c2)CC1 [Example 4, 1-(3-Fluoro-5-((8-(((1,1,1,3,3,3-hexafluoropropan-2-yl)oxy)carbonyl)-1,8-diazaspiro[4.5]decan-1-yl)methyl)phenyl)cyclopentane-1-carboxylic acid]
14 | < 0.1 | – | ≥ 75 | – | O=C(OC(C(F)(F)F)C(F)(F)F)N1CCC2(CCCN2Cc2ccc(C(F)(F)F)cc2C2(C(=O)O)CCCC2)CC1 [Example 7, 1-(2-((8-(((1,1,1,3,3,3-hexafluoropropan-2-yl)oxy)carbonyl)-1,8-diazaspiro[4.5]decan-1-yl)methyl)-5-(trifluoromethyl)phenyl)cyclopentane-1-carboxylic acid]
15 | < 0.1 | – | 25 to 75 | < 0.1 | CC1(C(=O)O)CCCN(c2cc(CN3CC4(CCN(C(=O)OC(C(F)(F)F)C(F)(F)F)CC4)C3)cc(C(F)(F)F)c2)C1 (centres unmarked) [Example 114, 1-(3-((7-(((1,1,1,3,3,3-Hexafluoropropan-2-yl)oxy)carbonyl)-2,7-diazaspiro[3.5]nonan-2-yl)methyl)-5-(trifluoromethyl)phenyl)-3-methylpiperidine-3-carboxylic acid]
16 | < 0.1 | – | ≤ 25 | – | O=C(O)CN1CCC2(CC1)CCN(c1cc(C(F)(F)F)ccc1CN1CCCC13CCN(C(=O)OC(C(F)(F)F)C(F)(F)F)CC3)C2 [Example 154, 2-(2-(2-((8-(((1,1,1,3,3,3-Hexafluoropropan-2-yl)oxy)carbonyl)-1,8-diazaspiro[4.5]decan-1-yl)methyl)-5-(trifluoromethvl)phenyl)-2,8-diazaspiro[4.5]decan-8-yl)acetic acid]
17 | < 0.1 | ### (### is ≥ 75%) | 25 to 75 | – | CC(C)(C#Cc1c(Cl)cccc1CN1CCCC12CCN(C(=O)OC(C(F)(F)F)C(F)(F)F)CC2)C(=O)O [Example 1, 4-(2-Chloro-6-((8-(((1,1,1,3,3,3-hexafluoropropan-2-yl)oxy)carbonyl)-1,8-diazaspiro[4.5]decan-1-yl)methyl)phenyl)-2,2-dimethylbut-3-ynoic acid]
18 | < 0.1 | – | ≤ 25 | – | O=C(O)CN1CC2CC1CN2c1cc(C(F)(F)F)ccc1CN1CC2(CCN(C(=O)OC(C(F)(F)F)C(F)(F)F)CC2)C1 (centres unmarked) [Example 127, 2-(5-{2-[(7-{[(1,1,1,3,3,3-Hexafluoropropan-2-yl)oxy]carbonyl}-2,7-diazaspiro[3.5]nonan-2-yl)methyl]-5-(trifluoromethyl)phenyl}-2,5-diazabicyclo[2.2.1]heptan-2-yl)acetic acid]
